One compound from patent publication US8637670B2, “Imidazo [4,5-C]quinoline derivatives and their use in the treatment of tumors and/or inflammation” (Piramal Enterprises Limited, priority 2009, dated 2014) can be followed below.

What all share (assay type): cell-based
In one assay the test system is A549. Kind of assay: Cytotoxicity, propidium iodide assay, A549. Particulars: Homo sapiens; Lung, A549, 48 hours treatment; read-out: IC50, C1a (A549). The method, boiled down:
(§1)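 3000 cells/well; 18-24 h attachment at 37° C./5% CO2; compound 48 h; PBS wash; 7 μg/ml PI; freeze −70° C. ≥24 h; thaw to RT, fluorescence read; IC50 from % viability vs untreated.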

A further assay deals with MDA MB 468. The experiment in a line: Cytotoxicity, propidium iodide assay, MDA MB 468. Particulars: Homo sapiens; Breast, MDA MB 468, 48 hours treatment; read-out: IC50, C6b (MDA MB 468). Here is the method: (§2) The assay was designed as in the reference, Anticancer Drugs, 2002, 13, 1-8, the disclosure of which is incorporated by reference for the teaching of the assay.
(§3) Cells from cell lines as mentioned in the table given below were seeded at a density of 3000 cells/well in a white opaque 96-well plate. Following incubation at 37° C./5% CO2 for a period of 18-24 hours, the cells were treated with various concentrations (stock solution was prepared in DMSO and subsequent dilutions were made in media as per ATCC guidelines) of the compounds of Example 1-40 was for a period of 48 hours. At the end of treatment, the spent culture medium was discarded, the cells were washed with 1×PBS and 200 μl of 7 μg/ml propidium iodide was added to each well. The plates were frozen at −70° C. for at least 24 hours. For analysis, the plates were brought to RT, allowed to thaw and were read in PoleStar fluorimeter with the fluorescence setting. The percentage of viable cells in the non-treated set of wells was considered to be 100 and the percentage viability following treatment was calculated accordingly. IC50 values were calculated from graphs plotted using these percentages. Table 4 depicts the IC50 values of compounds of Example 1-40 in individual cell lines.
(§4) The abbreviations for the Cell Lines as used in Table 4 are: […]

The next assay has as its system IL-6. Kind of assay: Human monocyte assay, LPS-stimulated IL-6 (ELISA). Particulars: human monocytes, 1 μg/ml LPS, 5 hours. The procedure, abridged:
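IL-6 and TNF-α in supernatants were quantified by ELISA after 5 h of 1 μg/ml LPS (E. coli 0111:B4) challenge at 37 °C, following a 30 min compound pretreatment (vehicle 0.5% DMSO). Cells were adherent human blood monocytes, 2×10^4 per well, cultured 48 h beforehand. Nonlinear regression gave IC50; a parallel MTS plate checked toxicity.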

Another assay deals with PC3. The experiment in a line: Cytotoxicity, propidium iodide assay, PC3. Particulars: Homo sapiens, PC-3; Prostate, PC3, 48 hours treatment; read-out: IC50, C2a (PC3). The procedure, abridged: as §1
The next assay has as its system A2780. The experiment in a line: Cytotoxicity, propidium iodide assay, A2780. To be noted: Homo sapiens; Ovarian, A2780, 48 hours treatment; read-out: IC50, C3a (A2780). The procedure, abridged: as §1
The test system of another assay is BT 549. The experiment in a line: Cytotoxicity, propidium iodide assay, BT 549. Particulars: Homo sapiens; Breast, BT 549, 48 hours treatment; read-out: IC50, C6d (BT 549). Here is the method: as §2, §3, §4
Another assay relates to H460. Kind of assay: Cytotoxicity, propidium iodide assay, H460. Particulars: Homo sapiens, NCI-H460; Lung, H460, 48 hours treatment; read-out: IC50, C1b (H460). The method, boiled down:
as §1

Turning to `CC(=O)c1ccc(S(=O)(=O)n2c(=O)n(-c3ccc(C(C)(C)C#N)cc3)c3c4cc(C)ccc4ncc32)cc1` [Example 25, 2-(4-(3-(4-Acetylphenylsulfonyl)-8-methyl-2-oxo-2,3-dihydro-1H-imidazo[4,5-c]quinolin-1-yl)phenyl)-2-methylpropanenitrile], the concentration for half-maximal inhibition (IC50) was > 3000 nM in the assay on A549; > 3000 nM in the assay with MDA MB 468; > 30 µM in the assay with IL-6; > 3000 nM in the assay with PC3; > 3000 nM in the assay with A2780; > 3000 nM in the assay on BT 549. Moreover, in the assay with H460, the IC50 was > 3000 nM.

What is called IC50 is the concentration that inhibits the measured activity by half.
